# Measured values: patent publication US9926267B2, “Covalent inhibitors of K-Ras G12C” (Araxes Pharma LLC, priority 2013, dated 2018)
# Target: T1, KRAS G12C 1-169, his-tagged protein, GDP-loaded (Homo sapiens, UniProt P01116, G12C)
# T1 construct: KRAS G12C 1-169, his-tagged protein, GDP-loaded
# Experiment: Biochemical assay: covalent binding to KRAS G12C, measured by mass spectrometry
# Conditions: Binding activity determined at 2 hrs; Table 8b
# Method: Test compounds were prepared as 10 mM stock solutions in DMSO (Fisher cat#BP-231-100). KRAS G12C 1-169, his-tagged protein, GDP-loaded was diluted to 2 μm in buffer (20 mM Hepes, 150 mM NaCl, 1 mM MgCl2). Compounds were tested for activity as follows:
# Compounds were diluted to 50× final test concentration in DMSO in 96-well storage plates. Compound stock solutions were vortexed before use and observed carefully for any sign of precipitation. Dilutions were as follow: • For 100 μM final compound concentration, compounds were diluted to 5000 μM (5 μl 10 mM compound stock+5 μl DMSO and mixed well by pipetting. • For 30 μM final compound concentration, compounds were diluted to 1500 μM (3 μl 10 mM compound stock+17 μl DMSO) and mixed well by pipetting. • For […] final compound concentration, compounds were diluted to 500 μM (2 μl 10 mM compound stock+38 μl DMSO) and mixed well by pipetting. 49 μl of the stock protein solution was added to each well of a 96-well PCR plate (Fisher cat#1423027). 1 μl of the diluted 50× compounds were added to appropriate wells in the PCR plate using 12-channel pipettor. Reactions were mixed carefully and thoroughly by pipetting up/down with a 200 μl multi-channel pipettor. The plate was sealed well with aluminum plate seal, and stored in a drawer at room temperature for 2 hrs or 24 hrs. 5 μl of 2% formic acid (Fisher cat#A117) in DI H2O was then added to each well followed by mixing with a pipette. The plate was then resealed with aluminum seal and stored on dry ice until analyzed as described below.
# The above described assays were analyzed by mass spectrometry according to the following procedure:
# The MS instrument is set to positive polarity, 2 GHz resolution, and low mass (1700) mode and allowed to equilibrate for 30 minutes. The instrument is then calibrated, switched to acquisition mode and the appropriate method loaded.
# After another 30 minute equilibration time, a blank batch (i.e., buffer) is run to ensure equipment is operating properly. The samples are thawed at 37° C. for 10 minutes, briefly centrifuged, and transfer to the bench top. Wells A1 and H12 are spiked with 1 uL 500 uM internal standard peptide, and the plates centrifuged at 2000×g for 5 minutes. The method is then run and masses of each individual well recorded.
# The masses (for which integration data is desired) for each well are pasted into the platemap and exported from the analysis. Masses for the internal standards are exported as well. The data at 50 ppm is extracted for the +19 charge state, and identity of well A1 is assigned using the internal standard spike and integrated. Peak data is exported as a TOF list and the above steps are repeated individually, for the +20, 21, 22, 23, 24, and charge states.
# T1 sequence (P01116 1-169 isoform P01116-2 G12C): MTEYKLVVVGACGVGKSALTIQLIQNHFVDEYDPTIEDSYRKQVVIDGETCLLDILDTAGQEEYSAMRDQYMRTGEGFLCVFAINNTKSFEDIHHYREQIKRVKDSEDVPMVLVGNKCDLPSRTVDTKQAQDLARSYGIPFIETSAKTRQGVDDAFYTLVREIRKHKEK
row,SMILES,Binding %
1,"C=CC(=O)N1CCN(C(=O)c2cc(-c3cc(Cl)ccc3Cl)c(Cl)cc2O)CC1C#N (stereo not shown) [VI-38, 1-acryloyl-4-(2′,5′,6-trichloro-4-hydroxybiphenyl-carbonyl)piperazine-2-carbonitrile]",++ (++ indicates binding activity greater than 20%)

# Same assay, conditions: Binding activity determined at 24 hrs; Table 7a
row,SMILES,Binding %
1,"C=CC(=O)N1CC(N2CCN(CCNc3cc(Cl)c(Cl)cc3O)CC2)C1 [Compound V-15, 1-(3-(4-(2-(4,5-dichloro-2-hydroxyphenyl-amino)ethyl)piperazin-1-yl)azetidin-1-yl)prop-2-en-1-one]",+ (+ indicates binding activity from 5% to 15%)

# Same assay, conditions: Binding activity determined at 24 hrs; Table 8a
row,SMILES,Binding %
1,"C=CC(=O)N1CCN(C(=O)c2nc(-c3ccccc3Cl)c(C)s2)CC1 [VI-22, 1-(4-(4-(2-chlorophenyl)-5-methylthiazole-2-carbonyl)piperazin-1-yl)prop-2-en-1-one]",+ (+ indicates binding activity from 5% to 10%)
2,"C=CS(=O)(=O)N1CCN(C(=O)c2ccc(Cl)c(Cl)c2)CC1 [VI-34, (3,4-dichlorophenyl)(4-(vinylsulfonyl)piperazin-1-yl)methanone]",+++ (+++ indicates binding activity greater than 20% and up to 30%)
3,"COc1cc(Cl)c(-c2ccccc2Cl)cc1C(=O)N1CCN(C(=O)/C=C/CN(C)C)CC1 [VI-10, (E)-1-(4-(2′,6-dichloro-4-methoxybiphenyl-carbonyl)piperazin-1-yl)-4-(dimethylamino)but-2-en-1-one]",+ (+ indicates binding activity from 5% to 10%)
4,"C=CC(=O)N1CCN(C(=O)c2cc(-c3cccs3)[nH]n2)CC1 [VI-16, 1-(4-(5-(thiophen-2-yl)-1H-pyrazole-3-carbonyl)piperazin-1-yl)prop-2-en-1-one]",+ (+ indicates binding activity from 5% to 10%)
5,"C=CC(=O)N1CCN(C(=O)c2cc(-c3ccccc3Cl)c(Cl)cc2OC)CC1 [VI-1, 1-(4-(2′,6-dichloro-4-methoxybiphenyl-carbonyl)piperazin-1-yl)prop-2-en-1-one]",+ (+ indicates binding activity from 5% to 10%)
6,"C=CC(=O)N1CCN(C(=O)c2cc(-c3cc(Cl)ccc3Cl)c(Cl)cc2OC)CC1CO (stereo not shown) [VI-6, 1-(2-(hydroxymethyl)-4-(2′,5′,6-trichloro-4-methoxybiphenyl-carbonyl)piperazin-1-yl)prop-2-en-1-one]",++ (++ indicates binding activity greater than 10% and up to 20%)
7,"C=CC(=O)N1CCN(C(=O)c2cc(O)cc(-c3ccccc3Cl)c2)CC1 [VI-25, 1-(4-(2′-Chloro-5-hydroxy-[1,1′-biphenyl]-3-carbonyl)piperazin-1-yl)prop-2-en-1-one]",+++ (+++ indicates binding activity greater than 20% and up to 30%)
8,"C=CC(=O)N1CCN(C(=O)c2ccc(Cl)c(-c3ccccc3Cl)c2)CC1 [VI-12, 1-(4-(2′,6-dichlorobiphenyl-carbonyl)piperazin-1-yl)prop-2-en-1-one]",+++ (+++ indicates binding activity greater than 20% and up to 30%)
9,"C=CC(=O)N1CCN(C(=O)c2ccc(Cl)c(Cl)c2)CC1 [VI-36, 1-(4-(3,4-dichlorobenzoyl)piperazin-1-yl)prop-2-en-1-one]",+ (+ indicates binding activity from 5% to 10%)
10,"C=CC(=O)N1CCN(C(=O)c2cc(-c3cc(F)ccc3Cl)c(Cl)cc2OC)CC1 [VI-4, 1-(4-(2′,6-dichloro-5′-fluoro-4-methoxybiphenyl-carbonyl)piperazin-1-yl)prop-2-en-1-one]",++ (++ indicates binding activity greater than 10% and up to 20%)
11,"C=CC(=O)N1CCN(C(=O)c2cc(Br)c(Cl)cc2O)CC1 [VI-9, 1-(4-(5-bromo-4-chloro-2-hydroxybenzoyl)piperazin-1-yl)prop-2-en-1-one]",+ (+ indicates binding activity from 5% to 10%)
12,"C=CC(=O)N1CCN(C(=O)c2cc(I)c(Cl)cc2OC)CC1 [VI-2, 1-(4-(4-chloro-5-iodo-2-methoxybenzoyl)piperazin-1-yl)prop-2-en-1-one]",++ (++ indicates binding activity greater than 10% and up to 20%)
13,"C=CC(=O)N1CCN(C(=O)c2cc(-c3ccccc3)c(Cl)cc2O)CC1 [VI-29, 1-(4-(6-chloro-4-hydroxybiphenyl-carbonyl)piperazin-1-yl)prop-2-en-1-one]",+++ (+++ indicates binding activity greater than 20% and up to 30%)
14,"C=CC(=O)N1CCN(C(=O)c2cc(-c3cc(Cl)ccc3Cl)c(Cl)cc2OC)CC1 [VI-5, 1-(4-(2′,5′,6-trichloro-4-methoxybiphenyl-carbonyl)piperazin-1-yl)prop-2-en-1-one]",++++ (++++ indicates binding activity greater than 30%)
